# Values of other authors, collected in patent publication EP3663750B1, “SCAFFOLDED NUCLEIC ACID POLYMER PARTICLES AND METHODS OF MAKING AND USING” (Life Technologies Corporation, priority 2009, dated 2010).
# Conditions: Oil Soluble Azo Initiator Compounds; temperature at which the initiator has a half-life of 10h
row,SMILES,10 hour half-life decomposition temperature
1,CC(C)CC(C)(C#N)N=NC(C)(C#N)CC(C)C (centres unmarked),51 °C
2,CCC(C)(C#N)N=NC(C)(C#N)CC (centres unmarked),67 °C
3,N#CC1(N=NC2(C#N)CCCCC2)CCCCC1,88 °C
4,C=CCNC(=O)C(C)(C)N=NC(C)(C)C(=O)NCC=C,96 °C
5,CCCCNC(=O)C(C)(C)N=NC(C)(C)C(=O)NCCCC,110 °C
6,CC(C)(N=NC(C)(C)C(=O)NC1CCCCC1)C(=O)NC1CCCCC1,111 °C

# Same assay, conditions: Water Soluble Azo Initiator Compounds; temperature at which the initiator has a half-life of 10h
row,10 hour half-life decomposition temperature,SMILES
1,60 °C,CC(C)(N=NC(C)(C)C1=NCCN1CCO)C1=NCCN1CCO
2,67 °C,CC(C)(N=NC(C)(C)C(=N)N1CCCC1)C(=N)N1CCCC1
3,87 °C,CC(C)(N=NC(C)(C)C(=O)NCCO)C(=O)NCCO

# Same assay, conditions: buffer
row,SMILES,10 hour half-life decomposition temperature
1,CC(C)(N=NC(C)(C)C1=NCCN1)C1=NCCN1 [drawing 1],44 °C
2,CC(C)(N=NC(C)(C)C1=NCCN1)C1=NCCN1 [drawing 6],61 °C
